Source: paper PMC5103216, “Novel Agonist Bioisosteres and Common Structure-Activity Relationships for The Orphan G Protein-Coupled Receptor GPR139” (Scientific Reports, 2016)

Legend:
Format in all cases: cell-based
[1] = target: T1, M1 receptor (Homo sapiens, UniProt P11229); assay: cAMP dynamic 2 assay measuring Gs activation in CHO-M1 (control)
T1 construct: host or cells: CHO-k1
T1 sequence (P11229 1-460): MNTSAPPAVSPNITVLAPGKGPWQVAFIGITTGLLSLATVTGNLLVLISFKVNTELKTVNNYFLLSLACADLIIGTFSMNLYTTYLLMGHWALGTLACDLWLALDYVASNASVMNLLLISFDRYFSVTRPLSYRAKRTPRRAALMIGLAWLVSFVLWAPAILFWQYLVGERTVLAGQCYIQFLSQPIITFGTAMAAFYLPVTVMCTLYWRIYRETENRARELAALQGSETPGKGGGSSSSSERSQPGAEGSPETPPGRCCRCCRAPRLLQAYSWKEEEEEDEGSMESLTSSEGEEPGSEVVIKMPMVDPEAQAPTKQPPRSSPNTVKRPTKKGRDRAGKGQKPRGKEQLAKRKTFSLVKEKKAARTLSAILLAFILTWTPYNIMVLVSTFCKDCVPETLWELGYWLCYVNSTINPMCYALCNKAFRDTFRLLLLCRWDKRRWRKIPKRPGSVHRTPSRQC
Method: (§1) The cAMP assay was performed as described in the work by Thomsen et al.[28] with few modifications. Breifly, CHO-139 and CHO-M1 was detached and resuspended to a concentration of 1 million cells/mL. 5 μL 2x concentrated compound (for Gs: +100 μM IBMX and for Gi: +100 μM IBMX +10 μM forskolin (Fsk)) and 5 μL cell suspension (5,000 cells/well) was mixed. The plate was sealed and incubated at room temperature for 30 min. Next, 10 μL detection reagents (lysis buffer containing 2.5% Eu^3+-anti-cAMP antibody and 2.5% cAMP-d2) was added and the plate was incubated for 1 hour at room temperature. The plate was read on an Envision (PerkinElmer, Waltham, MA, USA). The TR-FRET 665 nm/615 nm ratio, which is inversely proportional with the cAMP production, was used to determination the concentration of the cAMP response. […]
Supplementary Figure 1. cAMP dynamic 2 assay measuring Gs activation. 5,000 cells/well of CHO-139 (pink bars) or CHO-M1 (blue bars) cells are
incubated with the indicated compounds for 30 min at room temperature in the presence of 50 µM IBMX. 5 µM and 10 µM forskolin (Fsk) serves as positive
controls. The responses are one representative out of at two independent experiments performed in triplicates. Data points are means ± SD. […]
Data points are means ± SD.

[2] = target: T2, GPR139 (Homo sapiens, UniProt Q6DWJ6); assay: cAMP dynamic 2 assay measuring Gi activation (forskolin) in CHO-139; details: CHO-139
T2 sequence (Q6DWJ6 1-353): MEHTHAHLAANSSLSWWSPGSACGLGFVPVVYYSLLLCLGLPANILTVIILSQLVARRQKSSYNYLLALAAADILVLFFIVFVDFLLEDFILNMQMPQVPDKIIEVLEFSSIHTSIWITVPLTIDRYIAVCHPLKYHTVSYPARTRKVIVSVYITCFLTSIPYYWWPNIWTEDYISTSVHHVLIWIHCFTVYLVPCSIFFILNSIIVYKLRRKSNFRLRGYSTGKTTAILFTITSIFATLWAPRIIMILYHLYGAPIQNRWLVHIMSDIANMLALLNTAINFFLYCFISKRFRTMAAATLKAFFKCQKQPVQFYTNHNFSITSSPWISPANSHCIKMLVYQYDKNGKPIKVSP
Method: as §1
Supplementary Figure 2. cAMP dynamic 2 assay measuring Gi activation. 5,000 cells/well of CHO-139 (pink bars) or CHO-M1 (blue bars) cells are
incubated with the indicated compounds for 30 min at room temperature in the presence of 50 µM IBMX and 5 uM Fsk (expect “buffer (-Fsk) where only 50
µM IBMX is present). The straight line indicate the level of cAMP upon activation with 5 uM Fsk, and the grey area ±10% of the response. The responses are
one representative out of at two independent experiments performed in triplicates. Data points are means ± SD.

[3] = target: T2, GPR139; assay: Fluo-4 Ca2+-assay in CHO-k1 cells stably expressing GPR139 (CHO-GPR139); details: for EC50: CHO-GPR139, mean of at least three experiments; for Emax: CHO-K1, relative to 1a
Method: Compound 1a[11] was kindly provided by H. Lundbeck A/S, Denmark. Compound 7c (Enamine no: Z31449867) was tested as a racemate, as the (S)-form described by Janssen et al. was not commercially available. All compounds were dissolved to 20 mM in DMSO (Sigma, D2650) and subsequently diluted in a HEPES buffer (HBSS (Invitrogen, 14025) supplemented with 20 mM HEPES + 1 mM MgCl2 + 1 mM CaCl2, pH = 7.4) to a final concentration 0.5% DMSO in the assay. The DMSO level was kept constant for all concentrations of all compounds. DMSO was confirmed not to have any activity by itself at this concentration. L-Tryptophan (T0254) and L-Phenylalanine (P2126) were obtained from Sigma-Aldrich and dissolved directly in buffer.
All compounds were tested on a CHO-k1 cell line stably expressing GPR139 (CHO-GPR139) kindly provided by H. Lundbeck A/S, Denmark, and also on a CHO-k1 cell line stably expressing the M1 receptor (CHO-M1) (The Missouri S&T cDNA Resource Center, #CEM100TN00) to check for specificity. The CHO-GPR139 was grown in Dulbecco’s modified eagle medium (DMEM) F12-Kaighn’s (Gibco, 21127) supplemented with 10% dialysed fetal bovine serum (Gibco, 26400, United States origin), 1% GlutaMAX^TM-I (100X) (Gibco, 35050), and 100 units/mL penicillin and 100 μg/mL streptomycin (Gibco, 15140) and 1.0 mg/mL geneticin (Invitrogen, 1181103). CHO-M1 was grown in Ham’s F12 (Gibco, 21765) supplemented with 10% fetal bovine serum (Gibco, 10270, South America origin) +100 units/mL penicillin and 100 μg/mL streptomycin (Invitrogen, 15140–122) and 0,25 mg/mL geneticin (Life Technologies, 11811–031). Compound 1a and carbamoylcholine chloride (Sigma-Aldrich, C4382) were used as positive controls in the two cell lines, respectively.
30.000 cells/well were plated in black 96-well plates with flat clear bottoms (Corning, Falcon, 353219) and incubated overnight. The Fluo-4 dye loading solution (Invitrogen, F36206) was prepared according to the manufacturer’s instructions by dissolving it in HEPES buffer supplemented with 2.5 mM probenecid. 50 μL dye loading solution was added to each well. Cells were incubated with the Fluo-4 dye for 60 min at 37 °C, then washed with 100 μL HEPES buffer. 100 μL HEPES buffer supplemented with 2.5 mM probenecid was then added to each well and incubated in 10 minutes at 37 °C before measurement. 33 μL of the test compounds (4x concentrated) were added automatically after baseline measurements. Intracellular calcium change was recorded on a NOVOstar instrument (BMG Labtech) at 37 °C with an excitation filter of 485 nm and an emission filters 520 nm. Data originate from three independent experiments in triplicates.

SMILES	Gs response (cAMP) [1]	Inhibition of the cAMP response induced by 5 μM forskolin (Gi), in words [2]	EC50 [3]	Emax [3]	fold lower potency than 1a [3]
O=C(CN1CCCc2ccccc21)NNC(=O)c1ccc2c(c1)OCO2 [DL22]	None of the tested compounds induced Gs response	none of the tested compounds were able to inhibit the cAMP response	442 nM	105%	
COc1cc(OC)cc(C(=O)NNC(=O)C2CCCc3ccccc32)c1 (stereo not drawn) [DL24]	None of the tested compounds induced Gs response	none of the tested compounds were able to inhibit the cAMP response	431 nM	109%	
CCn1c(C)nc2cc(C(=O)NNC(=O)Cc3cccc4ccccc34)ccc21 [DL43]	None of the tested compounds induced Gs response	none of the tested compounds were able to inhibit the cAMP response	364 nM	97%	~ 10 fold
O=C(Cc1cccc2ccccc12)NNC(=O)c1ccc2c(c1)OCO2 [DL126]	None of the tested compounds induced Gs response	none of the tested compounds were able to inhibit the cAMP response	411 nM	91%	~ 10 fold
O=C(CNC(=O)c1ccc2c(c1)OCO2)NC1CCSc2ccc(F)cc21 (stereo not drawn) [DL130]	None of the tested compounds induced Gs response	none of the tested compounds were able to inhibit the cAMP response	888 nM	89%	
O=C(NCC(=O)N1CCCC1c1ccccc1)c1ccc2c(c1)OCO2 (stereo not drawn) [DL132]	None of the tested compounds induced Gs response	none of the tested compounds were able to inhibit the cAMP response	505 nM	94%	
